# Like-named read-outs stand apart in the source and are kept apart here.
# Tests used:
# ZIKV NS3 expression = assay: Western blot of viral protein expression; type: cell-based; conditions: 48 hrs; dose-dependent
# Procedure: The ability of compounds to inhibit viral protein expression was also tested by WB, using GTX133309 ZIKV α-NS3 antibody (GeneTex, Inc.).
# Lower panel, NS3 expression normalized to the GAPDH loading control.
# A549 cells = assay: Cytotoxicity, MTT or WST-8 cell proliferation assay
# SLEV = type: cell-based, St. Louis encephalitis virus; conditions: without ambient light (in dark)
# JEV = assay: microbe, parasite or virus in culture; type: cell-based, Japanese encephalitis virus; conditions: JEV*, without ambient light (in dark)
# DENV2 His-MBP-NS3 = DENV2 His-MBP-NS3 (Dengue virus type 2, UniProt P29990); assay: Protein thermal shift assay (PTSA); type: binding; conditions: compound 4.8 μM, protein 2.5 μM
# Sequence of DENV2 His-MBP-NS3 (P29990 1476-1660 limits assumed): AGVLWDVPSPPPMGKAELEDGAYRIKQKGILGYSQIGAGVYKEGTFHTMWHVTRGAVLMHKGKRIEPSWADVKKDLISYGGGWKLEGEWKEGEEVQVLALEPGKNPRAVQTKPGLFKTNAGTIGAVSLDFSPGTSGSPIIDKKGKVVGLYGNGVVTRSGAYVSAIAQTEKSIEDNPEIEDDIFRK
# Procedure: PTSA was conducted using an Applied Biosystem 7500 Fast Real-Time PCR System (ThermoFisher Scientific) from 25 to 80° C. The DENV2 His-MBP-NS3 (final concentration of 2.5 μM in 1× PBS) was mixed with each compound to attain a 4.8 μM final concentration in 1.6% DMSO in the MicroAmp® Fast Optical 96-Well Reaction Plate (ThermoFisher Scientific). Thermal denaturation was monitored using SYPRO Orange (Life Technologies) according to manufacturer's manual. The denaturation of the proteins was monitored by following the increase of the fluorescence emitted by the probe that binds exposed hydrophobic regions of the denatured protein. The melting temperature (Tm) was calculated as the mid-log of the transition phase from the native to the denatured protein, using a Derivative model using the Protein Thermal Shift™ Software v1.0 (ThermoFisher Scientific). The reference unfolding temperature of proteins in 1.6% DMSO (Tm-DMSO) was subtracted from the values in the presence of each compounds (Tm-comp) to obtain thermal shifts, ΔTm=Tm-comp−Tm-DMSO. Compounds were considered to be binders when ΔTm>0.5° C.
# POWV = type: cell-based, Powassan virus; conditions: without ambient light (in dark)
# ZIKV = assay: Time-of-addition experiment in infected A549 cells; type: cell-based, Zika virus; conditions: for virus reduction: titers at 48 h, no ambient light
# [1] = target: DENV2 His-NS2B/His-MBP-NS3 protease (Dengue virus type 2, UniProt P29990); assay: NS2B/NS3 protease inhibition assay; type: biochemical
# Sequence of DENV2 His-NS2B/His-MBP-NS3 protease (P29990 1476-1660 limits assumed): as above
# ZIKV strain GZ01/2016 = assay: Viremia model in immunocompetent Balb/C mice; type: in vivo; conditions: 0.02 mg/mice ip daily for 2 days; RT-qPCR on day 2 post-infection
# Procedure: Viremia on day 2 post-infection (pi) was determined by RT-qPCR, and statistical analysis was performed using the unpaired, two-tailed t-test.
# YFV = assay: microbe, parasite or virus in culture; type: cell-based, yellow fever virus; conditions: YFV*, without ambient light (in dark)
# [2] = tested on: ZIKV (Puerto Rico strain PRVABC59); assay: Viral titer reduction assay in A549 cells, ZIKV; type: cell-based, Zika virus
# [3] = target: refolded His-NS3 protease domain (Dengue virus type 2, UniProt P29990); assay: Surface plasmon resonance (SPR); type: binding; conditions: 25° C., 1:1 Langmuir binding model; read-out: dissociation constant (KD)
# Sequence of refolded His-NS3 protease domain (P29990 1476-1653 limits assumed): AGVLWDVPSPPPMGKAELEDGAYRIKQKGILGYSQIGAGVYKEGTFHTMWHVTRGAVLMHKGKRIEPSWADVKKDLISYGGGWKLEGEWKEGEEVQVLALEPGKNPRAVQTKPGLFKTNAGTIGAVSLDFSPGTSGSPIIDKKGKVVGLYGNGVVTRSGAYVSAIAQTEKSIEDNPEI
# ZIKV strain GZ01 = conditions: ZIKV strain GZ01, Vero cells, RT-qPCR
# ZIKV GZ01/2016 strain = assay: Lethal A129 mice model; type: in vivo; conditions: 1 mg/kg ip daily for 5 days
# Description: For the lethal A129 mice model, a group of four-week old A129 mice were infected intraperitoneally (ip) with 2×10^5 PFU of ZIKV GZ01/2016 strain. […] Mice were observed daily for signs of illness and mortality. Survival curves were compared using the Log-rank test. All the ZIKV-infected animals treated with vehicle died with typical neurological symptoms including hind limb weakness and paralysis (FIG. 31B). […] Viremia was detected by RT-qPCR on day 2 post-ZIKV infection in three-week old Balb/C mice.
# [4] = target: ZIKV GST-NS3 protease domain / FLAG-tagged ZIKV NS2B (Zika virus, UniProt Q32ZE1); assay: Competitive GST pull-down assay; type: binding; conditions: pre-incubation with GST-NS3 beads; dose-dependent
# Sequence of ZIKV GST-NS3 protease domain / FLAG-tagged ZIKV NS2B (Q32ZE1 1499-1676): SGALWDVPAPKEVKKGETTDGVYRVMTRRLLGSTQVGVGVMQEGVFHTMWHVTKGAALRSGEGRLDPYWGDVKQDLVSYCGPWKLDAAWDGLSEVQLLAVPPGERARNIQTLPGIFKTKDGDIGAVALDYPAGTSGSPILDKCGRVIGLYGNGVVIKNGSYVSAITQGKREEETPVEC
# Procedure: GST-NS3 or the GST-tag (10 μg) was immobilized on Glutathione sepharose-4B affinity beads (GE HealthCare). FLAG-tagged NS2B (10 μg) was incubated with the beads for 2 hours, and subjected to WB, using anti-FLAG (Genscript) and anti-GST antibodies (GE Healthcare). […] The assay was performed the same as in FIG. 32A, except that 2-fold dilution series of drugs were incubated with the GST-NS3 beads overnight prior to incubation with the FLAG-NS2B. […] The binding of NS2B to NS3 in the absence of each drag (DMSO control) was set as 100%. The relative binding of NS2B to NS3 in the presence of each drug was normalized to the DMSO control.
# [5] = target: NS2B-NS3 interactions (Nluc-E66stop/GCN) (Dengue virus type 2, UniProt P29990); assay: biochemical; type: binding, DENV2; conditions: NS2B-NS3 SLC signal; read-out: SLC IC50
# Sequence of NS2B-NS3 interactions (Nluc-E66stop/GCN) (P29990 1476-1660 limits assumed): as the sequence (P29990 1476-1660 limits assumed) above
# WNV = assay: microbe, parasite or virus in culture; type: cell-based, West Nile virus; conditions: WNV*, without ambient light (in dark)
# [6] = ZIKV*, without ambient light (in dark)
substance,measurement,setting,value
"3-[10,15,20-tris(3-hydroxyphenyl)-2,3,22,24-tetrahydroporphyrin-5-yl]phenol [Temoporfin]",expression of ZIKV NS3 (western blot),ZIKV NS3 expression,significantly inhibited
same,CC50,"A549 cells; A549 cells, Table 1",40700 nM
same,CC50,A549 cells; Table 3,40700 ± 700 nM
same,EC50,SLEV,8 ± 1 nM
same,EC90,SLEV,25 nM
same,EC50,JEV,11 ± 1 nM
same,EC90,JEV,25 nM
same,Tm compared to the DMSO control,DENV2 His-MBP-NS3,increased Tm
same,EC50,POWV,10 ± 1 nM
same,EC90,POWV,32 nM
same,virus reduction,ZIKV; 90 nM added at 0 hours postinfection,92.3%
same,virus reduction,ZIKV; 90 nM added at 1 hour postinfection,92%
same,virus reduction,ZIKV; 90 nM added at 3 hours postinfection,90.5%
same,virus reduction,ZIKV; 90 nM added at 22 hours postinfection,86.5%
same,effectiveness of addition at 24-hour post-infection versus at the time of infection,"ZIKV; temoporfin 90 nM, niclosamide 0.75 μM, viral plaque reduction assay",almost equally effective
same,IC50,"[1]; Table 1, read-out: NS2B-MBP NS3 protease IC50",760 nM
same,IC50,"[1]; Table 3, read-out: IC50-pro",1100 ± 100 nM
same,"Vmax of the His-NS2B/MBP-NS3 hetero protease complex, % of the DMSO control","[1]; compound at 1.5 μM, 50 nM MBP-NS3, 1 μM His-NS2B, Abz substrate",57%
same,Km versus DMSO control,"[1]; compound at 1.5 μM, Abz substrate",similar
same,reduction in ZIKV-induced viremia compared to the vehicle control,ZIKV strain GZ01/2016,about 100 fold
same,EC50,YFV; read-out: EC50,6 ± 1 nM
same,EC90,YFV; read-out: EC90,15 nM
same,EC50,[2]; ZIKV,24 ± 3 nM
same,EC90,[2]; ZIKV,130 nM
same,EC50,[2]; [6],22 ± 2 nM
same,EC90,[2]; [6],120 nM
same,titer of ZIKV in the absence of light exposure,[2]; in dark,significantly reduced the titer
same,Kd,[3],400 nM
same,EC50 value,ZIKV strain GZ01,0.1 µg/mL
same,EC50,"DENV2; DENV2, Table 3",20 ± 3 nM
same,EC90,"DENV2; DENV2, Table 3",110 nM
same,EC50,"DENV2; read-out: EC50 (DENV2), Table 1",73 nM
same,infected animals protected (survival),ZIKV GZ01/2016 strain,83%
same,binding of FLAG-NS2B to GST-NS3,[4],significantly decreased the binding
same,IC50,[5],11200 nM
same,EC90,WNV,30 nM
same,EC50,WNV; read-out: EC50,10 ± 1 nM

# From US20230102223A1, “PHARMACEUTICAL COMPOSITIONS WITH ANTIFLAVIVIRAL ACTIVITY” (HEALTH RESEARCH, INC., priority 2016, published 2023)
